Data published in patent publication US7163961B1, “Drugs, foods and oral compositions containing stilbene-type compounds” (Sunstar Inc., priority 1999, dated 2007).

Columns and labels:
[1] = tested on: ovariectomized female stroke-prone spontaneously hypertensive rats (SHRSP/izm); experiment: Preventive action on decrease in bone weight in ovariectomized rats (climacteric conditions); format: in vivo, rat; conditions: left thigh bone, resveratrol in feed about 20 mg/kg per day, 8 weeks, mean ± SD, n = 5
Procedure: Rats subjected to climacteric conditions were studied to estimate the effect of the composition of the invention in preventing a decrease in bone weight. Specifically, 18-week-old female stroke-prone spontaneously hypertensive rats (SHRSP/izm) were ovariectomized and subjected to climacteric conditions. Then, the rats were grouped into a resveratrol group to which resveratrol was administered and a control group. Also provided was a sham group of rats which received a sham operation, that is, a laparotomy without ovary removal. The rats were fed ad libitum. The control group and sham group were fed with “Powdery Mixed Feed SP” (manufactured by Funahashi Farm), and the resveratrol group was fed with the same feed with resveratrol added thereto. The amount of added resveratrol administered was adjusted to about 20 mg/kg per day. Each group had 5 rats that were bred for 8 weeks. After the breeding period, the rats were slaughtered for dissection. The left thigh bone was removed from each group's rats. The thigh bones were tested for their bone density and measured for their breaking load and breaking energy values using “EZ-test” (manufactured by Shimadzu Corporation), whereby their bone strength was evaluated.

[2] = tested on: ovariectomized female stroke-prone spontaneously hypertensive rats (SHRSP/izm); experiment: Preventive action on hypertension, cardiac hypertrophy and cerebral apoplexy in ovariectomized rats; format: in vivo, rat; conditions: feed with 1.5 g/kg of resveratrol added, 8 weeks
Text: Rats subjected to climacteric conditions were studied to estimate the effect of the composition of the invention in preventing a rise in blood pressure, cardiac hypertrophy and cerebral apoplexy. Specifically, 18-week-old female stroke-prone spontaneously hypertensive rats (SHRSP/izm) were ovariectomized and subjected to climacteric conditions. Then, the rats were grouped into a resveratrol group and a control group. Also provided a sham group of rats which received a sham operation, that is, a laparotomy without ovary removal. The rats were fed ad libitum. The control group and sham group were fed with “Powdery Mixed Feed SP” (manufactured by Funahashi Farm), and the resveratrol group was fed with the same mixed feed with 1.5 g/kg of resveratrol added. Five rats in each group were bred for 8 weeks. The blood pressure of the rats was measured every week without anesthesia by means of a rat caudal artery sphygmomanometer. After the breeding period, the rats were slaughtered for dissection.

[3] = tested on: male stroke-prone spontaneously hypertensive rats (SHRSP/izm); experiment: Preventive action on hypertension and cardiac hypertrophy in male rats; format: in vivo, rat; conditions: 8 weeks
Procedure: The ability of the composition of the invention to prevent a rise in blood pressure and cardiac hypertrophy was researched using male rats. Firstly, 5- to 6-week-old male stroke-prone spontaneously hypertensive rats (SHRSP/izm) were grouped into a resveratrol group and a control group. The rats were fed ad libitum with “Powdery Mixed Feed SP” (manufacture by Funahashi Farm). The resveratrol group was administered resveratrol in an amount of 5 mg/kg per day. The administration was conducted by the intended clinical route, i.e., orally. The rats were force-fed orally once a day with a Teflon gastric tube. The dose was adjusted to 1 ml per 100 g of the body weight using a water for injection listed in The Japanese Pharmacopoeia, calculated according to the measured body weight of the individual rats. The control group was given the same amount of the water for injection listed in the Japanese Pharmacopoeia only. Each group had 5 rats that were bred for 8 weeks. The blood pressure of the rats was measured every 2 weeks without anesthesia by means of a rat caudal artery sphygmomanometer. After the breeding period, the rats were slaughtered for dissection and the ratio of the weight of the heart to the total body weight of the rats was measured.

[4] = tested on: osteoblastic cells; conditions: cultured osteoblastic cell strain; Biochem. Biophys. Res. Commun. 253, 859–863 (1998); cited from earlier work

Oc1ccc(C=Cc2cc(O)cc(O)c2)cc1 [Resveratrol, 3,5,4′-stilbenetriol]
Breaking energy ([1]; EZ-test): 0.0523 ± 0.0073 J
Breaking load ([1]; EZ-test): 99.46 ± 9.57 N
Bone density [1]: 1.479 ± 0.281 g/mL
Blood pressure compared with sham group [2]: about the same as that of the sham group
Cerebral infarction in brain tissue ([2]; 5 rats, control group 4 rats out of 5): not found in any rats
Inhibition of rise in blood pressure (FIG. 1) ([2]; caudal artery sphygmomanometer, weekly, without anesthesia): significantly higher action to inhibit a rise in the blood pressure than the control group
Brain weight per body weight ([2]; mean ± SD, n = 5): 0.803 ± 0.02%
Heart weight per body weight ([2]; mean ± SD, n = 5): 0.424 ± 0.023%
Heart weight per body weight ([3]; 5 mg/kg per day orally by gastric tube, mean ± SD, n = 5): 0.557 ± 0.024%
Inhibition of rise in blood pressure (FIG. 2) ([3]; 5 mg/kg per day orally, caudal artery sphygmomanometer, every 2 weeks): significantly higher action to inhibit a rise in the blood pressure
Activity of alkaline phosphatase [4]: accelerates the activity of alkaline phosphatase
Activity of prolyl hydroxylase [4]: enhances the activity of prolyl hydroxylase
Proliferation of osteoblastic cells [4]: accelerates the proliferation of osteoblastic cells
